Data taken from patent US20040076974A1, “Liver necrosis predictive genes” (priority 2002, published 2004).
Where “and” joins values, the source holds several entries; their conditions need not be identical. Identical values can stand only once. Like-named read-outs stand apart in the source and are kept apart here.

Legend:
[1] = system: Sprague Dawley rats; conditions: rat, in vivo; for Liver Necrosis / Score (histopathology liver necrosis severity score): ip
Summary of the method: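 Toxicity calls (necrosis present or absent at 72 h) and histopathology scores were correlated with tissue gene expression from Crl:CD Sprague Dawley rats. Animals, usually 3 treated with compound by i.p. route and 3 given vehicle, were killed at 6, 24 or 72 h and tissues frozen immediately in liquid nitrogen.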

[2] = system: toxicologically relevant rat genes (rat CT array); conditions: rat, in vivo

O=P1(N(CCCl)CCCl)NCCCO1 (centres unmarked) [cyclophosphamide]
Liver Toxicity Necrosis Classification [1]: no | Liver Necrosis ([1]; 25 mg/kg): no | Score (histopathology liver necrosis severity score) ([1]; 25 mg/kg): 1 | Liver Necrosis ([1]; 100 mg/kg): no | Score (histopathology liver necrosis severity score) ([1]; 100 mg/kg): 1 | 3-hydroxyisobutyrate dehydrogenase expression [2]: 0.9805 and 0.7489 and 0.9559 and 1.069 | 14-3-3 zeta expression [2]: 1.184 and 1.14 and 0.9397 and 1.393 and 1.097 and 1.241 and 0.8233 and 0.7916 | 60S ribosomal protein L6 expression [2]: 0.9039 and 0.9014 and 0.8838 and 1.028 and 0.8728 and 0.8315 | ATPase inhibitor (rat mitochondrial IF1 protein) expression [2]: 0.7509 and 0.9233 and 0.8847 and 0.6961 and 0.9379 and 0.8829 and 0.8577 and 0.9897 | Adenine nucleotide translocator 1 expression [2]: 0.9086 and 0.7561 and 1.167 | Aflatoxin B1 aldehyde reductase expression [2]: 0.6743 and 0.8573 and 0.9459 and 0.6588 and 0.7015 | Alpha-1 microglobulin/bikunin precursor (Ambp) expression [2]: 1.017 and 0.5993 and 0.8086 | Alpha-2-macroglobulin expression [2]: 0.846 and 0.9185 and 0.7109 and 1.376 and 0.7513 | Alpha-2-macroglobulin, sequence 2 expression [2]: 0.9485 and 1.095 and 1.193 | Alpha-prothymosin expression [2]: 0.6454 and 0.6204 | Alpha-tubulin expression [2]: 1.198 and 0.7656 and 0.8189 | Annexin V expression [2]: 1.206 and 1.05 and 1.01 | Apolipoprotein All expression [2]: 0.9781 and 0.8882 and 0.8841 | Apolipoprotein C1 expression [2]: 0.9407 and 0.9263 and 1.074 | Apolipoprotein CIII expression [2]: 0.9783 and 0.6934 and 0.9372 | Aquaporin-3 (AQP3) expression [2]: 0.9643 and 0.9481 and 0.9808 | Arginosuccinate synthetase 1 expression [2]: 1.222 and 0.8241 and 1.258 | Bax (alpha) expression [2]: 1.239 and 1.237 and 1.357 and 1.269 and 0.9338 | Beta-actin, sequence 2 expression [2]: 1.01 and 0.7994 and 0.7978 | Beta-tubulin, class I expression [2]: 0.6539 and 0.688 | Betaine homocysteine methyltransferase (BHMT) expression [2]: 0.479 and 0.46 and 0.7332 | Biliverdin reductase expression [2]: 0.8817 and 0.9203 and 1 | C-reactive protein expression [2]: 1.634 and 0.981 and 1.457 | CDK108 expression [2]: 0.8582 and 0.7188 and 0.8687 | Calpactin I heavy chain expression [2]: 1.229 and 1.24 and 1.238 and 1.077 and 1.066 and 1.019 and 0.9156 | Calpain 2 expression [2]: 0.949 and 0.9377 and 0.9321 | Cathepsin B expression [2]: 0.8937 and 0.8218 and 0.8443 | Cathepsin S expression [2]: 1.022 and 1.151 | Cofilin expression [2]: 1.007 and 0.8938 and 0.9356 | Collagen type II expression [2]: 0.9485 and 0.8839 and 0.6238 | Contrapsin-like protease inhibitor (CPi-21) expression [2]: 1.085 and 0.6397 and 0.8351 | Cyclin D1 expression [2]: 0.8933 and 1.39 | Cystatin C expression [2]: 0.9711 and 1.107 and 0.9417 | Dynamin-1 (D100) expression [2]: 0.9779 and 1.159 and 1.053 and 0.8876 and 0.9989 and 0.9805 and 0.8392 and 0.9019 | Elongation factor-1 alpha expression [2]: 1.136 and 0.9264 | Epidermal growth factor expression [2]: 1.068 and 1.046 (2×) and 0.855 and 1.03 | F1-ATPase beta subunit expression [2]: 0.9746 and 0.7787 and 0.8888 | Fas antigen expression [2]: 1.289 and 1.407 and 0.9112 and 1.614 and 1.141 | Fatty acid synthase expression [2]: 0.8145 and 0.6404 and 0.4288 | Gadd45 expression [2]: 0.951 and 0.9302 and 1.226 and 0.8099 and 0.9252 | Gadd153 expression [2]: 1.107 and 1.088 and 1.217 and 1.23 and 1.048 | Glutathione S-transferase theta-1 expression [2]: 1.063 and 0.5752 and 0.7421 | Heme oxygenase expression [2]: 0.9535 and 0.8807 and 1.153 and 0.8353 and 0.9394 and 1.116 and 1.353 and 1.508 | High affinity IgE receptor gamma chain (FcERIgamma) expression [2]: 0.8735 and 0.8896 and 0.9764 | Hypoxanthine-guanine phosphoribosyltransferase expression [2]: 0.9194 and 0.7728 and 0.8641 | ID-1 expression [2]: 1.442 and 1.187 and 1.516 and 0.9754 and 1.354 | IgE binding protein expression [2]: 0.8797 | Integrin beta1 expression [2]: 1.174 and 0.9675 and 1.666 and 0.9992 | Interleukin-18 expression [2]: 0.9442 and 1.131 | JNK1 stress activated protein kinase expression [2]: 1.083 and 1.357 | L-gulono-gamma-lactone oxidase expression [2]: 0.9031 and 1.152 and 0.724 and 0.7478 and 0.9085 | Lecithin: cholesterol acyltransferase expression [2]: 1.164 and 0.8942 and 0.9655 | Matrin F/G expression [2]: 1.192 and 0.8718 and 1.349 and 1.163 | Melanoma-associated antigen ME491 expression [2]: 0.8571 and 0.8832 and 0.9165 | Monocyte chemotactic protein receptor (CCR2) expression [2]: 0.9135 and 0.9294 and 1.707 and 0.9161 and 1.021 | Multidrug resistant protein-1 expression [2]: 1.07 and 0.9469 and 1.398 | Multidrug resistant protein-2 expression [2]: 1.024 and 1.129 and 1.355 | NADP-dependent isocitrate dehydrogenase, cytosolic expression [2]: 0.8988 and 1.062 | NIPK expression [2]: 1.292 and 0.8721 | Nucleoside diphosphate kinase beta isoform expression [2]: 0.9788 and 0.8819 and 0.9694 | Organic anion transporter 3 expression [2]: 1.199 and 1.24 and 0.8444 and 0.9666 | Organic cation transporter 3 expression [2]: 0.9369 and 0.9031 and 0.9971 and 1.049 and 1.006 and 0.9297 and 0.8878 | Ornithine decarboxylase expression [2]: 1.176 and 1.138 and 1.239 and 1.627 and 1.232 and 1.15 and 0.9487 and 1.103 | Osteoactivin expression [2]: 1.044 and 1.068 and 1.102 | PAR interacting protein expression [2]: 0.9853 and 0.8819 and 1.001 and 0.9074 and 0.8501 | Phase-1 RCT-15 expression [2]: 1.548 | Phase-1 RCT-24 expression [2]: 0.8922 | Phase-1 RCT-33 expression [2]: 0.9894 and 0.9036 and 0.7825 and 0.5992 | Phase-1 RCT-36 expression [2]: 0.8405 and 0.8638 and 0.7841 | Phase-1 RCT-38 expression [2]: 0.6634 | Phase-1 RCT-39 expression [2]: 1.102 and 0.8162 | Phase-1 RCT-40 expression [2]: 0.9476 and 0.7827 and 0.6627 and 0.9191 | Phase-1 RCT-43 expression [2]: 1.413 | Phase-1 RCT-48 expression [2]: 0.7872 | Phase-1 RCT-49 expression [2]: 0.9994 | Phase-1 RCT-50 expression [2]: 1.001 and 0.9172 | Phase-1 RCT-57 expression [2]: 1 | Phase-1 RCT-58 expression [2]: 0.9564 | Phase-1 RCT-61 expression [2]: 0.956 and 0.9001 | Phase-1 RCT-65 expression [2]: 1.662 | Phase-1 RCT-68 expression [2]: 1.562 | Phase-1 RCT-78 expression [2]: 0.8268 | Phase-1 RCT-81 expression [2]: 0.9793 | Phase-1 RCT-88 expression [2]: 0.7545 and 0.7728 and 0.8998 and 0.9204 | Phase-1 RCT-89 expression [2]: 0.8326 | Phase-1 RCT-92 expression [2]: 0.7803 and 0.7782 | Phase-1 RCT-117 expression [2]: 0.9098 | Phase-1 RCT-121 expression [2]: 0.9382 | Phase-1 RCT-123 expression [2]: 0.8497 | Phase-1 RCT-128 expression [2]: 0.7223 | Phase-1 RCT-137 expression [2]: 0.7713 | Phase-1 RCT-138 expression [2]: 0.9171 | Phase-1 RCT-144 expression [2]: 0.8012 and 0.9797 and 0.8356 | Phase-1 RCT-146 expression [2]: 0.8995 | Phase-1 RCT-149 expression [2]: 1.199 | Phase-1 RCT-152 expression [2]: 0.9267 and 0.8689 | Phase-1 RCT-154 expression [2]: 0.9702 | Phase-1 RCT-156 expression [2]: 1.626 | Phase-1 RCT-164 expression [2]: 1.443 and 0.9271 | Phase-1 RCT-179 expression [2]: 0.9473 and 0.8452 and 0.9271 | Phase-1 RCT-180 expression [2]: 0.9312 and 0.9629 | Phase-1 RCT-182 expression [2]: 0.7286 and 0.6249 and 0.7487 and 1.104 | Phase-1 RCT-189 expression [2]: 1.097 and 0.7075 and 0.8923 | Phase-1 RCT-192 expression [2]: 1.102 | Phase-1 RCT-207 expression [2]: 0.9999 and 1.403 and 0.9634 and 0.8151 | Phase-1 RCT-211 expression [2]: 1.001 | Phase-1 RCT-213 expression [2]: 0.9194 and 0.9272 | Phase-1 RCT-227 expression [2]: 0.8544 and 0.7558 | Phase-1 RCT-230 expression [2]: 0.8887 | Phase-1 RCT-241 expression [2]: 0.9823 | Phase-1 RCT-258 expression [2]: 1.294 and 1.004 and 1.001 | Phase-1 RCT-260 expression [2]: 0.9269 | Phase-1 RCT-264 expression [2]: 0.7874 | Phase-1 RCT-270 expression [2]: 0.9664 and 0.6832 | Phase-1 RCT-271 expression [2]: 0.642 and 0.7477 | Phase-1 RCT-288 expression [2]: 0.8319 and 0.9535 | Phase-1 RCT-290 expression [2]: 0.6874 and 0.7078 and 0.8375 | Phase-1 RCT-291 expression [2]: 1 and 0.8077 and 0.9279 | Phase-1 RCT-292 expression [2]: 0.8838 | Poly(ADP-ribose) polymerase expression [2]: 0.9399 and 0.8855 and 1.07 | Presenilin-1 expression [2]: 0.6993 and 0.8827 and 0.7827 | Proliferating cell nuclear antigen gene expression [2]: 0.8773 and 0.9599 and 1 | Protein tyrosine phosphatase, receptor type, D expression [2]: 1.351 and 1.117 | Pyruvate kinase, muscle expression [2]: 0.9707 and 1.019 and 0.8026 | Retinol dehydrogenase type III expression [2]: 1.384 and 0.6954 and 0.7914 | Ribosomal protein S8 expression [2]: 0.9951 and 0.8646 and 0.9055 | Ribosomal protein S17 expression [2]: 0.973 and 0.9247 and 0.8883 and 1.41 and 1.034 and 0.9413 | Stathmin expression [2]: 1.012 and 1.005 and 0.8767 | Thioredoxin-1 (Trx1) expression [2]: 0.9618 and 0.9127 and 0.8599 | Thymidylate synthase expression [2]: 1.077 and 1.121 and 1.142 | Thymosin beta-10 expression [2]: 1.026 and 0.8658 and 0.6552 | Tissue plasminogen activator expression [2]: 0.8917 and 0.8347 and 0.9056 | Transitional endoplasmic reticulum ATPase expression [2]: 0.9095 and 0.8634 and 0.9474 | Transthyretin expression [2]: 0.9173 and 0.9384 and 0.8358 and 0.667 and 1.075 | Ubiquitin conjugating enzyme (RAD 6 homologue) expression [2]: 0.9811 and 1.057 and 0.8291 and 1.341 and 1.041 and 1.145 and 0.8334 and 1.02 | Uncoupling protein 2 expression [2]: 0.8638 and 0.7241 | Zinc finger protein expression [2]: 0.991 and 1.034 and 1.076 and 1.004 and 1.101 and 0.9835 and 1.081 and 1.11 | c-myc expression [2]: 0.9533 (2×) and 0.912 and 1.636 and 0.8965 | p55CDC expression [2]: 0.9412 and 1.059 and 0.9495 | {Phase-1 RCT 98} expression [2]: 0.8899 and 0.9469 | {Ribosomal protein 16} expression [2]: 1.097 and 0.9357 and 0.8372
